From ChEMBL document CHEMBL6182944, “Substrate Specificity of the Organic Cation Transporters MATE1 and MATE2K and Functional Overlap with OCT1 and OCT2” (J Med Chem, 2025)

How the values were obtained:
MATE1 = biological target: T1, MATE1 (Homo sapiens, UniProt Q96FL8); test: in vitro
T1 sequence (Q96FL8 whole entry): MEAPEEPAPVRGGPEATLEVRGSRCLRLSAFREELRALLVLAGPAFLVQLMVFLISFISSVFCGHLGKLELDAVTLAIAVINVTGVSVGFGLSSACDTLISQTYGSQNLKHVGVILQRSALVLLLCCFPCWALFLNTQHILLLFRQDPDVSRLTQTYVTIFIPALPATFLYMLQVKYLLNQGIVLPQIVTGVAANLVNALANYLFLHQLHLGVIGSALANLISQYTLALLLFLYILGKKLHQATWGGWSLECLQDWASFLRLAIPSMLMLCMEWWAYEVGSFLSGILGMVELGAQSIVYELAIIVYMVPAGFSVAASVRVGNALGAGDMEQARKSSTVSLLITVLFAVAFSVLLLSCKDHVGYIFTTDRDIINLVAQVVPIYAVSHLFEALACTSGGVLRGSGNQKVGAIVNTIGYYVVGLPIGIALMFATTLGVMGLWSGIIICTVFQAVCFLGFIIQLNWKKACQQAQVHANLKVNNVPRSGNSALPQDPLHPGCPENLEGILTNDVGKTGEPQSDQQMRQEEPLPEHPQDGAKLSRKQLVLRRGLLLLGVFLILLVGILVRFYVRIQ

MATE2-K = biological target: T2, MATE2-K (Homo sapiens, UniProt Q86VL8); test: in vitro
T2 sequence (Q86VL8 whole entry): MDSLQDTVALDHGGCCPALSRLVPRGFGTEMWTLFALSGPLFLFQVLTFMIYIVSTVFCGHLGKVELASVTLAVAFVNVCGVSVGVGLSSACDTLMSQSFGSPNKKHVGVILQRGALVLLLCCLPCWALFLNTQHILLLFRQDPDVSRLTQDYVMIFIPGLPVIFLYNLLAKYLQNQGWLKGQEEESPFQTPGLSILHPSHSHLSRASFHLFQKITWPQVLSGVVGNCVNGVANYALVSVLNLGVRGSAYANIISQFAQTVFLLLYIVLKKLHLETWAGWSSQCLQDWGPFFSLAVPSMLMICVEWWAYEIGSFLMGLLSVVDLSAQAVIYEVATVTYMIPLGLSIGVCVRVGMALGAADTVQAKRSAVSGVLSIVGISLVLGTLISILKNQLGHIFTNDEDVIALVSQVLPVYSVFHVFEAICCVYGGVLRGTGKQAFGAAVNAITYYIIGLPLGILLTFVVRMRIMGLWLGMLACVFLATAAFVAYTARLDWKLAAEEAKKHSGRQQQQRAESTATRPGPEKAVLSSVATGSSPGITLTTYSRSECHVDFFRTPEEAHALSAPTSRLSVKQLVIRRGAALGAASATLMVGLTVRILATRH

[1] = HEK293 cells expressing MATE2-K

| SMILES | uptake ratio at 1 min, 2.5 µM (MATE1; HEK293 cells expressing MATE1) | uptake ratio at 1 min, 2.5 µM (MATE2-K; [1]) | uptake ratio at 1 min, 2.5 µM (MATE1; hek293) | uptake ratio at 1 min, 2.5 µM (MATE2-K; hek293) |
| --- | --- | --- | --- | --- |
| CNCCc1ccc(O)c(O)c1 [DEOXIEPINEPHRINE] | > 2 | > 2 |  |  |
| CC(C)N(CCC(C(N)=O)(c1ccccc1)c1ccccn1)C(C)C (stereo not drawn) [DISOPYRAMIDE] | < 2 | < 2 |  |  |
| CC[N+](C)(C)c1cccc(O)c1 [EDROPHONIUM] | > 2 | > 2 |  |  |
| COC(=O)CCc1ccc(OCC(O)CNC(C)C)cc1 (stereo not drawn) [ESMOLOL] | < 2 | < 2 |  |  |
| CCNCC(O)c1cccc(O)c1 (stereo not drawn) [ETILEFRINE] | > 2 | > 2 |  |  |
| O=S(=O)(c1cccc2cnccc12)N1CCCNCC1 [FASUDIL] | < 2 | > 2 |  |  |
| CC(C)(C(=O)O)c1ccc(C(O)CCCN2CCC(C(O)(c3ccccc3)c3ccccc3)CC2)cc1 (stereo not drawn) [FEXOFENADINE] | < 2 | < 2 |  |  |
| OCCN1CCN(CCCN2c3ccccc3Sc3ccc(C(F)(F)F)cc32)CC1 [FLUPHENAZINE] | < 2 | < 2 |  |  |
| NCCCC(=O)O [GAMMA-AMINOBUTYRIC ACID] | < 2 | < 2 |  |  |
| Nc1ccn([C@@H]2O[C@H](CO)[C@@H](O)C2(F)F)c(=O)n1 [GEMCITABINE] | < 2 | < 2 |  |  |
| Oc1ccc(CC2NCCc3cc(O)c(O)cc32)cc1 (stereo not drawn) [HIGENAMINE] | > 2 | > 2 |  |  |
| NCCc1c[nH]cn1 [HISTAMINE] |  |  | > 2 | < 2 |
| CCCCCCCN(CC)CCCC(O)c1ccc(NS(C)(=O)=O)cc1 (stereo not drawn) [IBUTILIDE] | < 2 | < 2 |  |  |
| N=C(N)NCc1cccc(I)c1 [IOBENGUANE] | > 2 | > 2 |  |  |
| CCC(NC(C)C)C(O)c1ccc(O)c(O)c1 (stereo not drawn) [ISOETHARINE] | > 2 | > 2 |  |  |
| CC(C)NCC(O)c1ccc(O)c(O)c1 (stereo not drawn) [ISOPROTERENOL] | > 2 | > 2 |  |  |
| O=C(C[S+]([O-])Cc1ccco1)NC/C=C\COc1cc(CN2CCCCC2)ccn1 (stereo not drawn) [LAFUTIDINE] | < 2 | < 2 |  |  |
| C[N+](C)(C)C[C@H](O)CC(=O)[O-] [LEVOCARNITINE] | < 2 | < 2 |  |  |
| C[N+]1(C)CCCC(OC(=O)C(O)(c2ccccc2)c2ccccc2)C1 (stereo not drawn) [MEPENZOLATE BROMIDE] | > 2 | > 2 |  |  |
| CC(C)NCC(O)c1cc(O)cc(O)c1 (stereo not drawn) [METAPROTERENOL] | > 2 | > 2 |  |  |

| SMILES | uptake ratio at 1 min, 2.5 µM (MATE1; HEK293 cells expressing MATE1) | uptake ratio at 1 min, 2.5 µM (MATE2-K; [1]) | uptake ratio at 1 min, 2.5 µM (MATE1; hek293) | uptake ratio at 1 min, 2.5 µM (MATE2-K; hek293) |
| --- | --- | --- | --- | --- |
| Clc1ccc(COC(Cn2ccnc2)c2ccc(Cl)cc2Cl)c(Cl)c1 (stereo not drawn) [MICONAZOLE] | < 2 | < 2 |  |  |
| CNC(C)Cc1ccc2c(c1)OCO2 (stereo not drawn) [MIDOMAFETAMINE] | < 2 | < 2 |  |  |
| Nc1nc(CC(=O)Nc2ccc(CCNC[C@H](O)c3ccccc3)cc2)cs1 [MIRABEGRON] | > 2 | > 2 |  |  |
| Cc1ncc(C[n+]2csc(CCOP(=O)(O)O)c2C)c(N)n1 [MONOPHOSPHOTHIAMINE] | < 2 | < 2 |  |  |
| CC(C)(C)NCC(O)COc1cccc2c1CC(O)C(O)C2 (stereo not drawn) [NADOLOL] | > 2 | > 2 |  |  |
| OC(CNCC(O)C1CCc2cc(F)ccc2O1)C1CCc2cc(F)ccc2O1 (stereo not drawn) [NEBIVOLOL] | < 2 | < 2 |  |  |
| O=C(O)c1cccnc1 [NIACIN] |  |  | < 2 | < 2 |
| CNC(=O)c1cccnc1 [NICOTINYL METHYLAMIDE] | > 2 | > 2 |  |  |
| CNC(=C[N+](=O)[O-])NCCSCc1csc(CN(C)C)n1 [NIZATIDINE] | > 2 | > 2 |  |  |
| NCC(O)c1cccc(O)c1 (stereo not drawn) [NORFENEFRINE] | > 2 | < 2 |  |  |
| COc1cc(C(O)CN)ccc1O (stereo not drawn) [NORMETANEPHRINE] | < 2 | < 2 |  |  |
| NCC(O)c1ccc(O)cc1 (stereo not drawn) [OCTOPAMINE] | > 2 | < 2 |  |  |
| CC[N+](C)(CC)CCOC(=O)C(O)(c1ccccc1)C1CCCCC1 (stereo not drawn) [OXYPHENONIUM] | > 2 | > 2 |  |  |
| CC(C)(CO)[C@@H](O)C(=O)NCCC(=O)O [PANTOTHENIC ACID] | < 2 | < 2 |  |  |
| NCCc1ccccc1 [PHENETHYLAMINE] | < 2 | < 2 |  |  |
| CCC1(c2ccccc2)C(=O)NC(=O)NC1=O [PHENOBARBITAL] | < 2 | < 2 |  |  |
| CC[C@@H]1C(=O)OC[C@@H]1Cc1cncn1C [PILOCARPINE] | < 2 | < 2 |  |  |
| CC(C)NCC(O)COc1cccc2[nH]ccc12 (stereo not drawn) [PINDOLOL] | > 2 | < 2 |  |  |
| NC(=O)C1(N2CCCCC2)CCN(CCCC(=O)c2ccc(F)cc2)CC1 [PIPAMPERONE] | < 2 | < 2 |  |  |
| CN1CCN(CC(=O)N2c3ccccc3C(=O)Nc3cccnc32)CC1 [PIRENZEPINE] | > 2 | < 2 |  |  |

| SMILES | uptake ratio at 1 min, 2.5 µM (MATE1; HEK293 cells expressing MATE1) | uptake ratio at 1 min, 2.5 µM (MATE2-K; [1]) | uptake ratio at 1 min, 2.5 µM (MATE1; hek293) | uptake ratio at 1 min, 2.5 µM (MATE2-K; hek293) |
| --- | --- | --- | --- | --- |
| CC(=O)Nc1ccc(OCC(O)CNC(C)C)cc1 (stereo not drawn) [PRACTOLOL] |  |  | > 2 | > 2 |
| [H]/N=C(\N/C(=N/[H])Nc1ccc(Cl)cc1)NC(C)C [PROGUANIL] | > 2 | > 2 |  |  |
| CC(C)[N+](C)(CCOC(=O)C1c2ccccc2Oc2ccccc21)C(C)C [PROPANTHELINE] | > 2 | > 2 |  |  |
| NCCCCN [PUTRESCINE] |  |  | < 2 | < 2 |
| CNC(=C[N+](=O)[O-])NCCSCc1ccc(CN(C)C)o1 [RANITIDINE] |  |  | > 2 | > 2 |
| CN(C)CCc1c[nH]c2ccc(Cn3cncn3)cc12 [RIZATRIPTAN] | > 2 | > 2 |  |  |
| CNCc1ccc(-c2[nH]c3cc(F)cc4c3c2CCNC4=O)cc1 [RUCAPARIB] | > 2 | > 2 |  |  |
| CCN(CC)CCNC(=O)c1ccc(NS(C)(=O)=O)cc1 [SEMATILIDE] | > 2 | > 2 |  |  |
| NCCc1c[nH]c2ccc(O)cc12 [SEROTONIN] | > 2 | > 2 |  |  |
| N[C@@H](CC(=O)N1CCn2c(nnc2C(F)(F)F)C1)Cc1cc(F)c(F)cc1F [SITAGLIPTIN] | > 2 | > 2 |  |  |
| CC(C)NCC(O)c1ccc(NS(C)(=O)=O)cc1 (stereo not drawn) [SOTALOL] | > 2 | < 2 |  |  |
| NCCCCNCCCN [SPERMIDINE] | < 2 | < 2 |  |  |
| NCCCNCCCCNCCCN [SPERMINE] |  |  | < 2 | < 2 |
| Cn1nnc2c(C(N)=O)ncn2c1=O [TEMOZOLOMIDE] | < 2 | < 2 |  |  |
| CC(C)(C)NCC(O)c1cc(O)cc(O)c1 (stereo not drawn) [TERBUTALINE] | > 2 | > 2 |  |  |
| CC[C@@]1(O)C(=O)OCc2c1cc1n(c2=O)Cc2cc3c(CN(C)C)c(O)ccc3nc2-1 [TOPOTECAN] | > 2 | > 2 |  |  |
| O=C(O[C@H]1C[C@H]2CC[C@@H](C1)[N+]21CCCC1)C(O)(c1ccccc1)c1ccccc1 [TROSPIUM] | > 2 | < 2 |  |  |
| C=CCN1CCCC1CNC(=O)c1cc(S(N)(=O)=O)cc(OC)c1OC (stereo not drawn) [VERALIPRIDE] | > 2 | > 2 |  |  |
| O=C(NCCNCC(O)COc1ccc(O)cc1)N1CCOCC1 (stereo not drawn) [XAMOTEROL] | > 2 | > 2 |  |  |
